Test results reported in US4785090A, “Cephalosporin derivatives” (Meiji Seika Kaisha, Ltd., priority 1984, dated 1988).
Converted amounts (≈) assume the structure as drawn. Counter-ions that a name gives are not always drawn. Like-named read-outs stand apart in the source and are kept apart here.

Columns and labels:
[1] = test system: Staphylococcus aureus 209PJC1; assay: Minimum Growth Inhibitory Concentration (MIC), Staphylococcus aureus 209PJC1; assay type: cell-based
Source text: (§1) Minimum Growth Inhibitory Concentration (MIC) mcg/ml
1. Staphylococcus aureus 209PJC1
as §1
2. Staphylococcus aureus 209 PJC1

Proteus vulgaris GN 76 = assay: Minimum Growth Inhibitory Concentration (MIC), Proteus vulgaris GN 76; assay type: cell-based
Source text: as §1
10. Proteus vulgaris GN 76
as §1
8. Proteus vulgaris GN 76

[2] = test system: Staphylococcus aureus Smith; assay: Minimum Growth Inhibitory Concentration (MIC), Staphylococcus aureus Smith; assay type: cell-based; settings: read-out: Minimum Growth Inhibitory Concentration (MIC)
Source text: as §1
1. Staphylococcus aureus Smith

[3] = test system: Escherichia coli NIHJ JC2; assay: Minimum Growth Inhibitory Concentration (MIC), Escherichia coli NIHJ JC2; assay type: cell-based
Source text: as §1
3. Escherichia coli NIHJ JC2

Eshcerichia coli GN 206 = assay: Minimum Growth Inhibitory Concentration (MIC), Escherichia coli GN 206; assay type: cell-based
Source text: as §1
4. Eshcerichia coli GN 206

[4] = test system: Klebsiella pneumoniae PCI 602; assay: Minimum Growth Inhibitory Concentration (MIC), Klebsiella pneumoniae PCI 602; assay type: cell-based
Source text: as §1
5. Klebsiella pneumoniae PCI 602

Proteus mirabilis GN 79 = assay: Minimum Growth Inhibitory Concentration (MIC), Proteus mirabilis GN 79; assay type: cell-based
Source text: as §1
6. Proteus mirabilis GN 79

[5] = test system: Salmonella typhimurium LT2; assay: Minimum Growth Inhibitory Concentration (MIC), Salmonella typhimurium LT2; assay type: cell-based; settings: Salmonella enterica, read-out: Minimum Growth Inhibitory Concentration (MIC)
Source text: as §1
7. Salmonella typhimurium LT2

Proteus rettgeri GN624 = assay: Minimum Growth Inhibitory Concentration (MIC), Proteus rettgeri GN624; assay type: cell-based; settings: Providencia rettgeri
Source text: as §1
9. Proteus rettgeri GN624

[6] = test system: Serratia marcescens No. 1; assay: Minimum Growth Inhibitory Concentration (MIC), Serratia marcescens No. 1; assay type: cell-based; settings: Table 2, bacterium 11: Serratia marcescens No. 1
Source text: as §1
11. Serratia marcescens No. 1

[7] = test system: Serratia marcescens No. 2; assay: Minimum Growth Inhibitory Concentration (MIC), Serratia marcescens No. 2; assay type: cell-based
Source text: as §1
10. Serratia marcescens No. 2

[8] = Serum concentration in mice after subcutaneous administration; assay type: in vivo; settings: mouse, sc, subcutaneous 25 mg/kg
Experimental: The experiment was conducted by using 3 mice (average body weight 20 g) in each group, subcutaneously administering 25 mg/kg of the sample, taking blood samples at predetermined intervals, separating the serum and measuring the sample concentration by an antibacterial activity test using Escherichia coli as a testing bactera.

[9] = Table 2, bacterium 2: Staphylococcus aureus 209 PJC1, read-out: Minimum Growth Inhibitory Concentration (MIC)
[10] = GN76, Table 2, bacterium 8: Proteus vulgaris GN 76, read-out: Minimum Growth Inhibitory Concentration (MIC)
[11] = Table 2, bacterium 1: Staphylococcus aureus Smith
[12] = NIHJJC2, Table 2, bacterium 3: Escherichia coli NIHJ JC2, read-out: Minimum Growth Inhibitory Concentration (MIC)
[13] = GN206, Table 2, bacterium 4: Eshcerichia coli GN 206, read-out: Minimum Growth Inhibitory Concentration (MIC)
[14] = PCI602, Table 2, bacterium 5: Klebsiella pneumoniae PCI 602, read-out: Minimum Growth Inhibitory Concentration (MIC)
[15] = GN79, Table 2, bacterium 6: Proteus mirabilis GN 79, read-out: Minimum Growth Inhibitory Concentration (MIC)
[16] = Table 2, bacterium 7: Salmonella typhimurium LT2
[17] = Table 2, bacterium 9: Proteus rettgeri GN624, read-out: Minimum Growth Inhibitory Concentration (MIC)
[18] = Table 2, bacterium 10: Serratia marcescens No. 2, read-out: Minimum Growth Inhibitory Concentration (MIC)
[19] = Staphylococcus aureus, 209PJC1, read-out: Minimum Growth Inhibitory Concentration (MIC)
[20] = Proteus vulgaris, GN76, read-out: Minimum Growth Inhibitory Concentration (MIC)
[21] = Escherichia coli, NIHJJC2, read-out: Minimum Growth Inhibitory Concentration (MIC)
[22] = GN206, read-out: Minimum Growth Inhibitory Concentration (MIC)
[23] = Klebsiella pneumoniae, PCI602, read-out: Minimum Growth Inhibitory Concentration (MIC)
[24] = Proteus mirabilis, GN79, read-out: Minimum Growth Inhibitory Concentration (MIC)
[25] = GN624, read-out: Minimum Growth Inhibitory Concentration (MIC)
[26] = Serratia marcescens, NO.2, read-out: Minimum Growth Inhibitory Concentration (MIC)

SMILES	MIC [1, 9] [µg/mL]	MIC (Proteus vulgaris GN 76; [10]) [µg/mL]	MIC [2, 11] [µg/mL]	MIC [3, 12] [µg/mL]	MIC (Eshcerichia coli GN 206; [13]) [µg/mL]	MIC [4, 14] [µg/mL]	MIC (Proteus mirabilis GN 79; [15]) [µg/mL]	MIC [5, 16] [µg/mL]	MIC (Proteus rettgeri GN624; [17]) [µg/mL]	MIC [6] [µg/mL]	further results
CCO/N=C(\C(=O)N[C@@H]1C(=O)N2C(C(=O)[O-])=C(CSc3cc[n+](CC(F)(F)F)cc3)CS[C@H]12)c1csc(N)n1 [Example 81, (6R,7R)-7-[(Z)-2-(2-Aminothiazol-4-yl)-2-ethoxyiminoacetamido]-3-[1-(2,2,2-trifluoroethylpyridinium-4-yl)thiomethyl]-ceph-3-em-4-carboxylate]	0.39 (≈ 0.647 µM)	0.39 (≈ 0.647 µM)	0.39 (≈ 0.647 µM)	0.05 (≈ 0.083 µM)	≤ 0.025	0.1 (≈ 0.166 µM)	0.78 (≈ 1.29 µM)	0.05 (≈ 0.083 µM)	0.1 (≈ 0.166 µM)	0.05 (≈ 0.083 µM)	
CCO/N=C(\C(=O)N[C@@H]1C(=O)N2C(C(=O)[O-])=C(CSc3cc[n+](C(C(=O)O)c4ccccc4)cc3)CS[C@H]12)c1csc(N)n1 (stereo partly drawn) [Example 32, (6R,7R)-7-[(Z)-2-(2-Aminothiazol-4-yl)-2-ethoxyiminoacetamido]-3-[(1-carboxybenzylpyridinium-4-yl)thiomethyl]-ceph-3-em-4-carboxylic acid sodium salt]	1.56	0.78	1.56	0.39	0.78	0.2	3.13	0.39	0.39		MIC [7, 18]: 0.78 µg/mL
Nc1nc(/C(=N/OCC(=O)O)C(=O)N[C@@H]2C(=O)N3C(C(=O)O)=C(CSc4cc[n+](CC(=O)O)cc4)CS[C@H]23)cs1.[Na+] [Example 29, (6R,7R)-7-[(Z)-2-(2-Aminothiazol-4-yl)-2-(carboxymethoxyimino)acetamido]-3-[(1-carboxymethylpyridinium-4-yl)thiomethyl]-ceph-3-em-4-carboxylic acid sodium salt]								0.2			MIC [1, 19]: 0.39 µg/mL; MIC (Proteus vulgaris GN 76; [20]): 0.2 µg/mL; MIC ([2]; Staphylococcus aureus): 0.78 µg/mL; MIC [3, 21]: 0.39 µg/mL; MIC (Eshcerichia coli GN 206; [22]): 0.39 µg/mL; MIC [4, 23]: 0.1 µg/mL; MIC (Proteus mirabilis GN 79; [24]): 0.79 µg/mL; MIC (Proteus rettgeri GN624; [25]): 3.13 µg/mL; MIC [7, 26]: 0.39 µg/mL
CC(C)(O/N=C(\C(=O)N[C@@H]1C(=O)N2C(C(=O)[O-])=C(CSc3cc[n+](CC(F)(F)F)cc3)CS[C@H]12)c1csc(N)n1)C(=O)O [Example 83, (6R,7R)-7-[(Z)-2-(2-Aminothiazol-4-yl)-2-(carboxyprop-2-oxyimino)acetamido]-3-[1-(2,2,2-trifluoroethylpyridinium-4-yl)thiomethyl]-ceph-3-em-4-carboxylic acid sodium salt]	3.13	0.2	6.25	0.2	0.2	0.2	0.39	0.05	0.2	0.05	
CCO/N=C(\C(=O)N[C@@H]1C(=O)N2C(C(=O)[O-])=C(CSc3cccc[n+]3CC(=O)O)CS[C@H]12)c1csc(N)n1 [Example 33, sodium salt]	0.78	0.39	1.56	0.05	0.78	0.05	0.39	0.05	6.25		MIC [7, 18]: 0.1 µg/mL
CO/N=C(\C(=O)N[C@@H]1C(=O)N2C(C(=O)[O-])=C(CSc3cc[n+](CCF)cc3)CS[C@H]12)c1csc(N)n1 [Example 84, (6R,7R)-7-[(Z)-2-(2-Aminothiazol-4-yl)-2-methoxyiminoacetamido]-3-[1-(2-fluoroethylpyridinium-4-yl)thiomethyl]-ceph-3-em-4-carboxylate]	0.2 (≈ 0.362 µM)	0.2 (≈ 0.362 µM)	0.2 (≈ 0.362 µM)	0.05 (≈ 0.0905 µM)	< 0.025	0.1 (≈ 0.181 µM)	0.39 (≈ 0.706 µM)	0.05 (≈ 0.0905 µM)	0.1 (≈ 0.181 µM)	0.025 (≈ 0.0452 µM)	
CO/N=C(\C(=O)N[C@@H]1C(=O)N2C(C(=O)O)=C(CSc3cc[n+](CC(=O)O)cc3)CS[C@H]12)c1csc(N)n1.[Na+]											MIC [1, 19]: 0.78 µg/mL; MIC (Proteus vulgaris GN 76; [20]): 0.05 µg/mL; MIC ([2]; Staphylococcus aureus): 1.56 µg/mL; MIC [3, 21]: 1.56 µg/mL; MIC (Eshcerichia coli GN 206; [22]): 0.2 µg/mL; MIC [4, 23]: 0.025 µg/mL; MIC (Proteus mirabilis GN 79; [24]): 0.2 µg/mL; MIC ([5]; TYPHIMURIUM): 0.025 µg/mL; MIC (Proteus rettgeri GN624; [25]): 0.39 µg/mL; MIC [7, 26]: 0.05 µg/mL; concentration at 0.5 h ([8]; 1/2 hr): 12500 ng/mL; concentration at 0.25 h ([8]; 1/4 hr): 28000 ng/mL; concentration at 5 min ([8]; 1/12 hr): 20000 ng/mL; concentration at 1 h ([8]; 1 hr): 2200 ng/mL
CO/N=C(\C(=O)N[C@@H]1C(=O)N2C(C(=O)[O-])=C(CSc3cc[n+](CC(F)(F)F)cc3)CS[C@H]12)c1csc(N)n1 [Example 80, (6R,7R)-7-[(Z)-2-(2-Aminothiazol-4-yl)-2-methoxyiminoacetamido]-3-[1-(2,2,2-trifluoroethylpyridinium-4-yl)thiomethyl]-ceph-3-em-4-carboxylate]	0.2 (≈ 0.34 µM)	0.78 (≈ 1.33 µM)	0.2 (≈ 0.34 µM)	0.2 (≈ 0.34 µM)	0.05 (≈ 0.0849 µM)	0.2 (≈ 0.34 µM)	1.56 (≈ 2.65 µM)	0.2 (≈ 0.34 µM)	0.2 (≈ 0.34 µM)	0.2 (≈ 0.34 µM)	
C=CCO/N=C(\C(=O)N[C@@H]1C(=O)N2C(C(=O)O)=C(CSc3cc[n+](CC(=O)O)cc3)CS[C@H]12)c1csc(N)n1.[Na+] [Example 30, (6R,7R)-7-[(Z)-2-(2-Aminothiazol-4-yl)-2-(allyloxyimino)acetamido]-3-[(1-carboxymethylpyridinium-4-yl)thiomethyl]-ceph-3-em-4-carboxylic acid sodium salt]								0.1			MIC [1, 19]: 12.5 µg/mL; MIC (Proteus vulgaris GN 76; [20]): 0.05 µg/mL; MIC ([2]; Staphylococcus aureus): 25 µg/mL; MIC [3, 21]: 25 µg/mL; MIC (Eshcerichia coli GN 206; [22]): 1.56 µg/mL; MIC [4, 23]: 0.1 µg/mL; MIC (Proteus mirabilis GN 79; [24]): 0.05 µg/mL; MIC (Proteus rettgeri GN624; [25]): 0.2 µg/mL; MIC [7, 26]: 0.1 µg/mL
CCO/N=C(\C(=O)N[C@@H]1C(=O)N2C(C(=O)[O-])=C(CSc3cc[n+](C(C)C(=O)O)cc3)CS[C@H]12)c1csc(N)n1 (stereo partly drawn) [Example 31, (6R,7R)-7-[(Z)-2-(2-Aminothiazol-4-yl)-2-ethoxyiminoacetamido]-3-[1-(1-carboxy-1-ethylpyridinium-4-yl)thiomethyl]-ceph-3-em-4-carboxylic acid sodium salt]	3.13	1.56	3.13	6.25	0.39	0.2	0.78	0.2	0.78		MIC [7, 18]: 0.39 µg/mL
Nc1nc(/C(=N/OCC(=O)O)C(=O)N[C@@H]2C(=O)N3C(C(=O)[O-])=C(CSc4cc[n+](CC(F)(F)F)cc4)CS[C@H]23)cs1 [Example 82, (6R,7R)-7-[(Z)-2-(2-Aminothiazol-4-yl)-2-(carboxymethoxyimino)acetamido]-3-[1-(2,2,2-trifluoroethylpyridinium-4-yl)thiomethyl]-ceph-3-em-4-carboxylic acid sodium salt]	3.13	0.05	3.13	0.05	0.05	≤ 0.025	0.05		< 0.025	< 0.025	MIC ([5]; TYPHIMURIUM): < 0.025 µg/mL
